Each block holds one molecule with its values, some of them ahead of it.
What was measured:
[1] = tested on: Human immunodeficiency virus 2; test: Anti-HIV activity against HIV-2 ROD infected in MT-4 cells; type: functional, organism-based; conditions: Human immunodeficiency virus 2, ROD, MT4
[2] = tested on: Human immunodeficiency virus 1; test: Anti-HIV activity against HIV-1 IIIB infected in MT-4 cells; type: functional, organism-based; conditions: Human immunodeficiency virus 1, IIIB, MT4
[3] = target: T1, C-X-C chemokine receptor type 4 (Homo sapiens, UniProt P61073); test: Binding affinity to CXCR4 (unknown origin)
[4] = target: T1, C-X-C chemokine receptor type 4; test: Inhibition of 12G5-PE binding to CXCR4 in human U266B1 cells assessed as cell viability incubated for 1 hr by DAPI staining based flow cytometric analysis

T1 sequence (P61073 whole entry): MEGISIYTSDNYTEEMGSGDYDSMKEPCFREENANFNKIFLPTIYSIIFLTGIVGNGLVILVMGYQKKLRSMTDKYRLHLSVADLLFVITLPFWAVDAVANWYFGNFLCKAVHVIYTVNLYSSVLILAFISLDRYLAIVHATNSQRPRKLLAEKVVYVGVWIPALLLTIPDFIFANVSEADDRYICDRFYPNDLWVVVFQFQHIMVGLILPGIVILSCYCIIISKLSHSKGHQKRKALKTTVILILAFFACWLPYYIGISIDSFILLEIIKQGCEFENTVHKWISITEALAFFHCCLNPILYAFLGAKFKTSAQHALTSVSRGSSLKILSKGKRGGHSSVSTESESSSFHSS

IC50 [1]: 100 nM | IC50 [2]: 100 nM
SMILES: C1CNCCNCCCNC(C2CNCCCNCCNCCCN2)CNC1 (stereo not given)

IC50 [3]: 10 nM
SMILES: NCc1cc(C(N)=O)ccc1CN(Cc1nc2ccccc2[nH]1)C1CCCc2cccnc21 (stereo not given)

IC50 [3]: 10 nM
SMILES: COC(=O)C(=O)c1ccc(CN(Cc2nc3ccccc3[nH]2)C2CCCc3cccnc32)c(CN)c1 (stereo not given)

SMILES: O=C1OC2(c3ccc(O)cc3Oc3cc(O)ccc32)c2ccc(NC(=S)NCCCCN(Cc3nc4ccccc4[nH]3)C3CCCc4cccnc43)cc21 (stereo not given)
IC50 [4]: 5620 nM
